# Reference: the supplement of paper PMC10307832
# Experiments:
# Experiment in all cases: relative viability (nuclei count vs DMSO), 5 days (fraction); higher = more cells survive
# Ibrutinib + Palbociclib = compound: C=CC(=O)N1CCC[C@@H](n2nc(-c3ccc(Oc4ccccc4)cc3)c3c(N)ncnc32)C1 [Ibrutinib] + CC(=O)c1c(C)c2cnc(Nc3ccc(N4CCNCC4)cn3)nc2n(C2CCCC2)c1=O [Palbociclib] (partner 0.5 µM)
# Method in brief: (§1)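 Lung cancer cell lines in 1536-well plates got either a single drug or a fixed anchor-drug dose together with five library-drug doses (not always all listed) in √10 steps, by pin tool, on the day after seeding. Nuclei were counted after 5 days, and relative viability is the treated-to-vehicle ratio of nuclei counts. Values are medians of duplicate plates.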
# BMX-IN-1 + Trametinib = compound: C=CC(=O)Nc1cc(-n2c(=O)ccc3cnc4ccc(-c5ccc(NS(C)(=O)=O)cc5)cc4c32)ccc1C [BMX-IN-1] + CC(=O)Nc1cccc(-n2c(=O)n(C3CC3)c(=O)c3c(Nc4ccc(I)cc4F)n(C)c(=O)c(C)c32)c1 [Trametinib] (partner 0.02 µM)
# Method in brief: as §1
# Ibrutinib + OSI-027 = compound: C=CC(=O)N1CCC[C@@H](n2nc(-c3ccc(Oc4ccccc4)cc3)c3c(N)ncnc32)C1 [Ibrutinib] + COc1cccc2cc(-c3nc([C@H]4CC[C@H](C(=O)O)CC4)n4ncnc(N)c34)[nH]c12 [OSI-027] (partner 0.5 µM)
# Method in brief: as §1
# BMX-IN-1 + Phenformin = compound: C=CC(=O)Nc1cc(-n2c(=O)ccc3cnc4ccc(-c5ccc(NS(C)(=O)=O)cc5)cc4c32)ccc1C [BMX-IN-1] + N=C(N)NC(=N)NCCc1ccccc1 [Phenformin] (partner 250 µM)
# Method in brief: as §1
Cell Line,relative viability (Ibrutinib + Palbociclib; first compound 0.005 µM),relative viability (Ibrutinib + Palbociclib; first compound 0.01581 µM),relative viability (Ibrutinib + Palbociclib; first compound 0.05 µM),relative viability (Ibrutinib + Palbociclib; first compound 0.1581 µM),relative viability (Ibrutinib + Palbociclib; first compound 0.5 µM),relative viability (BMX-IN-1 + Trametinib; first compound 0.02 µM),relative viability (BMX-IN-1 + Trametinib; first compound 0.2 µM),relative viability (BMX-IN-1 + Trametinib; first compound 0.6325 µM),relative viability (BMX-IN-1 + Trametinib; first compound 2 µM),relative viability (Ibrutinib + OSI-027; first compound 0.005 µM),relative viability (Ibrutinib + OSI-027; first compound 0.01581 µM),relative viability (Ibrutinib + OSI-027; first compound 0.05 µM),relative viability (Ibrutinib + OSI-027; first compound 0.1581 µM),relative viability (Ibrutinib + OSI-027; first compound 0.5 µM),relative viability (BMX-IN-1 + Phenformin; first compound 0.02 µM),relative viability (BMX-IN-1 + Phenformin; first compound 0.2 µM),relative viability (BMX-IN-1 + Phenformin; first compound 0.6325 µM),relative viability (BMX-IN-1 + Phenformin; first compound 2 µM)
NCI-H2085,0.467,0.469,0.425,0.47,0.44,0.52,0.75,0.564,0.538,0.502,0.627,0.663,0.556,0.562,0.664,0.68,0.81,0.707
HCC-78,0.481,0.472,0.507,0.42,0.414,0.801,0.967,0.717,0.896,0.309,0.362,0.36,0.355,0.308,0.726,0.761,0.834,0.697
NCI-H647,0.334,0.385,0.305,0.374,0.538,0.702,0.563,0.467,0.474,,0.542,0.671,0.841,0.812,0.537,0.547,0.599,0.661
LU99A,0.339,0.391,0.41,0.443,0.391,0.515,0.548,0.548,0.572,0.245,0.254,0.323,0.32,0.288,0.817,0.811,1.06,0.759
A549,,,,,,,,,,,,,,,0.164,1.01,0.17,0.188
HARA,0.284,0.217,0.241,0.254,0.223,0.907,0.449,0.492,0.654,0.303,0.437,0.297,0.38,0.247,0.413,0.619,0.489,0.409
NCI-H1944,0.297,0.285,0.273,0.301,0.255,0.395,0.416,0.419,0.392,0.331,0.33,0.329,0.339,0.331,0.2,0.219,0.234,0.205
LCLC-103H,0.498,0.506,0.528,0.481,0.469,0.753,0.758,0.736,0.683,0.459,0.409,0.485,0.393,0.485,0.304,0.389,0.319,0.317
NCI-H1792,,0.593,0.757,,0.683,0.645,0.485,0.44,0.391,,0.712,0.677,,0.808,0.235,0.354,0.292,0.312
SW 900,0.572,0.437,0.552,0.511,0.479,1.12,0.831,0.816,0.807,,,0.532,0.442,0.62,0.545,0.82,0.614,0.543
LOU-NH91,0.563,0.499,0.567,0.56,0.513,,0.814,0.849,0.784,0.586,0.617,0.555,0.659,0.448,0.411,,0.882,0.704
HCC-366,0.439,0.405,0.38,0.385,0.428,0.36,0.352,0.376,0.361,0.803,0.84,0.934,0.802,0.96,0.503,0.625,0.639,0.603
CAL-12T,0.241,0.286,0.233,0.286,0.14,0.342,0.318,0.31,0.36,0.369,0.579,0.601,0.569,0.562,0.59,0.544,0.579,0.54
NCI-H1355,,0.362,0.359,0.422,0.295,0.385,0.459,0.463,0.45,0.29,0.388,0.382,0.347,0.403,0.397,0.477,0.453,0.481
ABC-1,0.482,0.439,,,0.733,,,,,0.331,0.457,0.479,0.441,0.547,0.227,0.232,0.243,0.229
NCI-H2405,0.49,0.514,,,0.525,0.688,0.642,0.659,0.591,0.54,0.627,0.63,0.662,0.638,0.389,0.568,0.391,0.429
NCI-H1648,0.279,0.27,0.259,0.297,0.252,0.435,0.585,0.469,0.495,0.243,0.288,0.278,0.256,0.306,,,,
NCI-H650,0.399,0.303,0.415,0.414,0.358,1.01,0.912,0.979,0.919,0.515,0.481,0.518,0.621,0.539,0.46,0.505,0.452,0.455
NCI-H2228,0.912,0.687,0.697,0.947,0.779,0.41,0.596,0.481,0.488,0.511,,0.478,0.481,0.509,0.339,0.388,0.458,0.37
EPLC-272H,,0.282,0.312,0.316,0.272,0.27,0.257,0.311,0.318,0.246,0.255,0.219,0.242,0.208,0.263,0.339,0.345,0.281

Cell Line,relative viability (Ibrutinib + Palbociclib; first compound 0.005 µM),relative viability (Ibrutinib + Palbociclib; first compound 0.01581 µM),relative viability (Ibrutinib + Palbociclib; first compound 0.05 µM),relative viability (Ibrutinib + Palbociclib; first compound 0.1581 µM),relative viability (Ibrutinib + Palbociclib; first compound 0.5 µM),relative viability (BMX-IN-1 + Trametinib; first compound 0.02 µM),relative viability (BMX-IN-1 + Trametinib; first compound 0.2 µM),relative viability (BMX-IN-1 + Trametinib; first compound 0.6325 µM),relative viability (BMX-IN-1 + Trametinib; first compound 2 µM),relative viability (Ibrutinib + OSI-027; first compound 0.005 µM),relative viability (Ibrutinib + OSI-027; first compound 0.01581 µM),relative viability (Ibrutinib + OSI-027; first compound 0.05 µM),relative viability (Ibrutinib + OSI-027; first compound 0.1581 µM),relative viability (Ibrutinib + OSI-027; first compound 0.5 µM),relative viability (BMX-IN-1 + Phenformin; first compound 0.02 µM),relative viability (BMX-IN-1 + Phenformin; first compound 0.2 µM),relative viability (BMX-IN-1 + Phenformin; first compound 0.6325 µM),relative viability (BMX-IN-1 + Phenformin; first compound 2 µM)
SK-LU-1,0.372,0.365,0.392,0.407,0.365,0.381,0.522,0.481,0.403,0.262,0.324,0.301,0.397,0.381,0.513,0.636,0.626,0.524
PC-3 [JPC-3],0.585,0.527,0.515,0.54,0.486,0.697,0.712,0.738,0.677,0.635,0.7,0.619,0.84,0.584,0.459,0.488,0.483,0.491
ChaGo-K-1,0.94,0.886,0.953,0.869,0.901,0.735,0.986,0.891,0.91,0.582,0.521,0.482,0.414,0.63,0.499,0.517,0.541,0.5
NCI-H3122,0.188,0.178,0.184,0.176,0.196,0.228,0.253,0.238,0.272,0.895,0.921,0.955,0.671,1.32,0.377,0.633,0.41,0.38
NCI-H2126,0.348,0.322,0.34,0.342,0.345,0.55,0.55,0.592,0.603,,0.59,0.537,0.537,0.632,0.517,0.559,0.581,0.526
NCI-H1993,0.388,0.56,1.64,0.714,0.466,0.531,0.588,0.464,0.56,0.574,0.566,0.584,0.552,0.692,0.438,0.525,0.453,0.492
NCI-H1793,0.251,0.247,0.238,0.31,0.243,0.544,0.454,0.505,0.454,,0.238,0.243,0.207,0.219,0.272,0.398,0.467,0.433
NCI-H441,0.2,0.199,0.216,0.138,0.157,0.451,0.53,0.613,0.548,0.579,0.664,0.597,0.677,0.707,0.864,1.02,0.991,1
H3255,0.312,0.328,0.293,0.324,0.26,0.725,0.624,0.599,0.672,0.459,0.547,0.623,0.654,0.406,0.327,0.357,0.782,0.374
NCI-H2087,0.243,0.217,0.161,,,0.204,0.174,0.214,0.218,0.407,0.504,1.08,,0.542,0.462,0.572,0.508,0.443
NCI-H661,0.365,0.337,0.332,0.366,0.304,0.634,0.597,0.642,0.535,0.702,0.674,0.476,0.698,0.423,0.242,0.259,0.282,0.255
COR-L 105,0.403,0.406,0.424,0.393,0.303,0.427,0.444,0.422,0.403,0.393,0.467,0.389,0.609,0.31,0.486,0.458,0.49,0.574
BEN,0.462,0.465,0.491,0.459,0.453,1.15,0.909,0.96,1.03,,0.3,0.288,,0.298,0.264,0.259,0.273,0.254
NCI-H2023,0.33,0.292,0.346,0.41,0.311,0.586,0.564,0.623,0.539,0.28,0.315,0.349,0.504,0.375,0.466,0.522,0.418,0.413
UMC-11,,0.335,0.359,0.417,0.355,0.831,0.727,0.763,0.738,0.306,0.441,0.495,0.541,0.5,0.294,0.316,0.356,0.367
NCI-H1755,0.473,0.442,0.467,0.455,0.495,0.703,0.81,0.853,0.695,0.636,0.552,0.79,0.81,0.777,0.544,0.673,0.711,0.612
NCI-H1563,,,,,,,,,,0.753,0.71,0.694,0.825,0.766,0.664,0.644,0.648,0.642
NCI-H1623,,,,,,,,,,0.42,0.403,0.32,0.42,0.313,0.527,0.676,0.585,0.601
NCI-H596,,,,,,0.718,0.912,0.652,0.825,,0.777,0.625,0.675,0.526,0.891,0.981,0.732,0.83
